# Measured values from paper PMC11953117 (Cancer Chemotherapy and Pharmacology, 2025).
# Read-outs that look alike come from different tables or passages of the source.
# Experiments:
# [1] = Capivasertib exposure metrics at steady state projected with PopPK model, patients with solid tumors; assay type: in vivo; conditions: human, plasma, oral; for concentration at 12 h: read-out: Cmin
# Method: Study 1 (NCT01226316) was a phase 1 open-label multipart study. […] The duration of the treatment cycles was 21 days. […] [18]. […] [18, 25, 39].
# Study 4 (NCT01353781) was a phase 1 dose-escalation study in Japanese patients with advanced solid malignancies.
# The exposure–response analyses were conducted using a subset of patients from the PopPK analysis where capivasertib was used as monotherapy. […] As different schedules were assessed between and within studies, the exposure metrics were derived for the last dose of the last dosing day in the second week of treatment (i.e. on days 14, 11, and 9 for the continuous, [4/3] and [2/5] schedules, respectively), to ensure SS conditions, using the planned dose. […] The relative dose intensity (RDI) was calculated as the percentage of the average weekly dose relative to the PWD to examine the tolerability of capivasertib monotherapy at the given dosing schedules.
# [2] = cited from earlier work
# [3] = 360 mg, Study 4 (Japanese patients), [4/3] BID, PWD 2880 mg, N=8, median (range)
# [4] = 400 mg, Study 4 (Japanese patients), Continuous BID, PWD 5600 mg, N=5, median (range)
# [5] = 480 mg, OAK, [4/3] BID, PWD 3840 mg, N=30, median (range)
# [6] = 480 mg, Study 1, [4/3] BID, PWD 3840 mg, N=127, median (range)
# [7] = 480 mg, Study 4 (Japanese patients), [4/3] BID, PWD 3840 mg, N=6, median (range)
# [8] = 600 mg, Study 1, Continuous BID, PWD 8400 mg, N=2, median (range)
# [9] = 640 mg, Study 1, [2/5] BID, PWD 2560 mg, N=8, median (range)
# [10] = 640 mg, Study 1, [4/3] BID, PWD 5120 mg, N=10, median (range)
# [11] = 640 mg, Study 4 (Japanese patients), [2/5] BID, PWD 2560 mg, N=6, median (range)
# [12] = 800 mg, Study 1, [2/5] BID, PWD 3200 mg, N=14, median (range)
smiles,measurement,setting,value
"NC1(C(=O)N[C@@H](CCO)c2ccc(Cl)cc2)CCN(c2ncnc3[nH]ccc23)CC1 [capivasertib, 4-amino-N-[(1S)-1-(4-chlorophenyl)-3-hydroxypropyl]-1-(7H-pyrrolo[2,3-d]pyrimidin– 4-yl)piperidine-4-carboxamide]",concentration at 12 h,"[1]; 360 mg, Study 4 (Japanese patients), [4/3] BID, 360 mg, PWD 2880 mg, N=8, median (range)",210 ng/mL
same,AUC at 1 week,[1]; [3],48800 ng·h/mL
same,Cmax,[1]; [3],960 ng/mL
same,AUC,"[1]; 400 mg, Study 1, Continuous BID, 400 mg, PWD 5600 mg, N=11, median (range), read-out: AUCPWD",81000 ng·h/mL
same,AUC,"[1]; 400 mg, Study 1, Continuous BID, 400 mg, PWD 5600 mg, N=11, median (range), read-out: AUCss(0–12 h)",5790 ng·h/mL
same,concentration at 12 h,"[1]; 400 mg, Study 1, Continuous BID, 400 mg, PWD 5600 mg, N=11, median (range)",190 ng/mL
same,Cmax,"[1]; 400 mg, Study 1, Continuous BID, PWD 5600 mg, N=11, median (range)",900 ng/mL
same,AUC,"[1]; 400 mg, Study 4 (Japanese patients), Continuous BID, 400 mg, PWD 5600 mg, N=5, median (range), read-out: AUCss(0–12 h)",7750 ng·h/mL
same,concentration at 12 h,"[1]; 400 mg, Study 4 (Japanese patients), Continuous BID, 400 mg, PWD 5600 mg, N=5, median (range)",270 ng/mL
same,AUC at 1 week,[1]; [4],109000 ng·h/mL
same,Cmax,[1]; [4],1240 ng/mL
same,AUC,"[1]; 480 mg, OAK, [4/3] BID, 480 mg, PWD 3840 mg, N=30, median (range), read-out: AUCss(0–12 h)",9750 ng·h/mL
same,concentration at 12 h,"[1]; 480 mg, OAK, [4/3] BID, 480 mg, PWD 3840 mg, N=30, median (range)",330 ng/mL
same,AUC at 1 week,[1]; [5],78000 ng·h/mL
same,Cmax,[1]; [5],1580 ng/mL
same,AUC,"[1]; 480 mg, Study 1, Continuous BID, 480 mg, PWD 6720 mg, N=6, median (range), read-out: AUCPWD",140000 ng·h/mL
same,AUC,"[1]; 480 mg, Study 1, Continuous BID, 480 mg, PWD 6720 mg, N=6, median (range), read-out: AUCss(0–12 h)",9980 ng·h/mL
same,concentration at 12 h,"[1]; 480 mg, Study 1, Continuous BID, 480 mg, PWD 6720 mg, N=6, median (range)",370 ng/mL
same,Cmax,"[1]; 480 mg, Study 1, Continuous BID, PWD 6720 mg, N=6, median (range)",1620 ng/mL
same,AUC,"[1]; 480 mg, Study 1, [4/3] BID, 480 mg, PWD 3840 mg, N=127, median (range), read-out: AUCss(0–12 h)",9690 ng·h/mL
same,concentration at 12 h,"[1]; 480 mg, Study 1, [4/3] BID, 480 mg, PWD 3840 mg, N=127, median (range)",330 ng/mL
same,AUC at 1 week,[1]; [6],77400 ng·h/mL
same,Cmax,[1]; [6],1590 ng/mL
same,AUC,"[1]; 480 mg, Study 4 (Japanese patients), [4/3] BID, 480 mg, PWD 3840 mg, N=6, median (range), read-out: AUCss(0–12 h)",10800 ng·h/mL
same,concentration at 12 h,"[1]; 480 mg, Study 4 (Japanese patients), [4/3] BID, 480 mg, PWD 3840 mg, N=6, median (range)",290 ng/mL
same,AUC at 1 week,[1]; [7],86800 ng·h/mL
same,Cmax,[1]; [7],1880 ng/mL
same,AUC,"[1]; 600 mg, Study 1, Continuous BID, 600 mg, PWD 8400 mg, N=2, median (range), read-out: AUCss(0–12 h)",14300 ng·h/mL
same,concentration at 12 h,"[1]; 600 mg, Study 1, Continuous BID, 600 mg, PWD 8400 mg, N=2, median (range)",460 ng/mL
same,AUC at 1 week,[1]; [8],200000 ng·h/mL
same,Cmax,[1]; [8],2520 ng/mL
same,AUC,"[1]; 640 mg, Study 1, [2/5] BID, 640 mg, PWD 2560 mg, N=8, median (range), read-out: AUCss(0–12 h)",15000 ng·h/mL
same,concentration at 12 h,"[1]; 640 mg, Study 1, [2/5] BID, 640 mg, PWD 2560 mg, N=8, median (range)",570 ng/mL
same,AUC at 1 week,[1]; [9],59800 ng·h/mL
same,Cmax,[1]; [9],2080 ng/mL
same,AUC,"[1]; 640 mg, Study 1, [4/3] BID, 640 mg, PWD 5120 mg, N=10, median (range), read-out: AUCss(0–12 h)",15900 ng·h/mL
same,concentration at 12 h,"[1]; 640 mg, Study 1, [4/3] BID, 640 mg, PWD 5120 mg, N=10, median (range)",550 ng/mL
same,AUC at 1 week,[1]; [10],127000 ng·h/mL
same,Cmax,[1]; [10],2430 ng/mL
same,AUC,"[1]; 640 mg, Study 4 (Japanese patients), [2/5] BID, 640 mg, PWD 2560 mg, N=6, median (range), read-out: AUCss(0–12 h)",15200 ng·h/mL
same,concentration at 12 h,"[1]; 640 mg, Study 4 (Japanese patients), [2/5] BID, 640 mg, PWD 2560 mg, N=6, median (range)",570 ng/mL
same,AUC at 1 week,[1]; [11],61000 ng·h/mL
same,Cmax,[1]; [11],2480 ng/mL
same,AUC,"[1]; 800 mg, Study 1, [2/5] BID, 800 mg, PWD 3200 mg, N=14, median (range), read-out: AUCss(0–12 h)",26400 ng·h/mL
same,concentration at 12 h,"[1]; 800 mg, Study 1, [2/5] BID, 800 mg, PWD 3200 mg, N=14, median (range)",1080 ng/mL
same,AUC at 1 week,[1]; [12],106000 ng·h/mL
same,Cmax,[1]; [12],3930 ng/mL
same,dose proportionality of plasma exposure,[2]; dose range of 80–480 mg,approximately dose proportional
same,half-life,[2]; patients,approximately 8 h
